# Results published in patent US20230082358A1, “3D PRINTED UV CROSSLINKING MASKS” (University of Maryland, College Park, priority 2021, published 2023).
# How the values were obtained:
# Format in all cases: cell-based
# [1] = system: Human umbilical artery endothelial cells (HUAECs); assay: HUAECs heparin release study, XTT
# Description: Human umbilical vein endothelial cells (HUVECs) (ThermoFisher Scientific, Waltham, Mass.) were seeded in 48-well plates at a density of 10,000 cells/well in 1 mL of Medium 200 (with manufacturer's required Low Serum Growth Supplement LSGS, ThermoFisher Scientific). Cells were left overnight to adhere before medium was replaced with 1 mL of treatment medium, which contained 0.1, 1, 10, 100, or 1000 μg/mL heparin in Medium 200 (with LSGS), while the control was medium only. The medium was replaced daily for the duration of this study. The electron coupling and XTT labeling reagents from the Cell Proliferation Kit II (XTT) (Roche, Mannheim, Germany) were mixed according to the manufacturer's protocol and added to the cell medium in a ratio of 1 to 2. […] The absorbance was measured with a Spark Multimode Microplate Reader (Tecan, Männedorf, Switzerland). Net absorbance was calculated (A475-A650) for each sample and XTT fold change was calculated by normalizing the net absorbance to that at 4 h.
# (§1) Human umbilical artery endothelial cells (HUAECs) (Sigma-Aldrich) were seeded in MesoEndo Cell Growth Medium (Sigma-Aldrich) with the appropriate heparin treatment. […] Immunostaining and quantification was completed as described above at 48 h. Tissue factor pathway inhibitor (TFPI) was quantified with DuoSet ELISA kit (R&D Systems, Minneapolis, Minn.) according to the manufacturer's protocol. […]
# [2] = system: Human umbilical vein endothelial cells (HUVECs); assay: vWF immunostaining, HUVECs; details: higher heparin concentrations; up to 120 h
# Description: (§2) HUVECs were seeded in 96-well plates at a density of 3,500 cells/well in 235 μL of Medium 200 (with LSGS). Cells were left overnight to adhere before medium was replaced with 200 μL of treatment medium, which contained 0.1, 1, 10, 100, or 1000 μg/mL heparin in Medium 200 (with LSGS), while the control was medium only. The medium was replaced daily for the duration of this study. Cells were fixed with 10% formalin and permeabilized. Wells were treated overnight with anti-von Willebrand factor antibody (1:200, 100 μL, ab9378, Abcam, Cambridge, Mass.). The secondary antibody used was Alexa Fluor 633 (4 μg/mL, Invitrogen, Carlsbad, Calif.). Then the cells were stained with DAPI solution (3 μg/mL in PBS) for 10 min. Wells were imaged with an Eclipse Ti2 microscope (Nikon, Tokyo, Japan) under Cy5 excitation (625-650 nm) and emission (670 nm) and DAPI excitation (340-380 nm) and emission (435-485 nm). MATLAB was used to quantify the intensity of the red channel and count the cells in the blue channel for 3 images of each of the 3 wells (n=9) to calculate a ratio of vWF intensity to number of cells.
# [3] = system: Human umbilical vein endothelial cells (HUVECs); assay: Cell metabolic activity assay (XTT), HUVECs; details: 100 and 1000 μg/mL heparin; 24, 72 and 120 h; p<0.05
# Description: Human umbilical vein endothelial cells (HUVECs) (ThermoFisher Scientific, Waltham, Mass.) were seeded in 48-well plates at a density of 10,000 cells/well in 1 mL of Medium 200 (with manufacturer's required Low Serum Growth Supplement LSGS, ThermoFisher Scientific). Cells were left overnight to adhere before medium was replaced with 1 mL of treatment medium, which contained 0.1, 1, 10, 100, or 1000 μg/mL heparin in Medium 200 (with LSGS), while the control was medium only. The medium was replaced daily for the duration of this study. The electron coupling and XTT labeling reagents from the Cell Proliferation Kit II (XTT) (Roche, Mannheim, Germany) were mixed according to the manufacturer's protocol and added to the cell medium in a ratio of 1 to 2. Cell medium was removed from the wells and the XTT solution was added. It was incubated for 4 h and 100 μL was extracted in triplicate (n=9). The absorbance was measured with a Spark Multimode Microplate Reader (Tecan, Männedorf, Switzerland). Net absorbance was calculated (A475-A650) for each sample and XTT fold change was calculated by normalizing the net absorbance to that at 4 h.
# [4] = system: Human umbilical vein endothelial cells (HUVECs); assay: Scratch assay, HUVECs; details: p<0.05
# Description: HUVECs were treated in culture with treatment medium for 48 h. Treatment medium contained 0.1, 1, 10, 100, or 1000 μg/mL heparin in Medium 200 (with LSGS), while the control was medium only. The medium was replaced daily for the duration of this study. A 48-well plate was treated for 45 min with 200 μL of 0.1% wt/vol porcine gelatin (Sigma-Aldrich, St. Louis, Mo.) in DI water at 37° C. Cells were seeded in the well plate at a density of 100,000 cells/well in 800 μL of Medium 200 (with LSGS). Cells were left to adhere for 24 h before the medium was replaced. Scratches were made with a 200 μL pipette tip. Cells were imaged for 1 to 16 h after the scratches were made. ImageJ was used to quantify the gap distance in one image for each well (n=6). Gap closure (%) was reported as
# where lo is the original gap length and lt is the gap length at a given time. The gap closure speed was defined as the slope of gap length curve with respect to time and was normalized to that of the 0 μg/mL group.
# [5] = system: Human umbilical artery endothelial cells (HUAECs); assay: HUAECs heparin release study, vWF immunostaining; details: 48 h, p<0.05
# Description: as §2, with “Wells were imaged with an Eclipse Ti2 microscope (Nikon, Tokyo, Japan) under Cy5 excitation (625-650 nm) and emission (670 nm) and DAPI excitation (340-380 nm) and emission (435-485 nm).” left out
# as §1
# [6] = system: Human umbilical vein endothelial cells (HUVECs); assay: Actin immunostaining / adhesion, HUVECs; details: 72 h treatment
# Description: (§3) HUVECs were treated in culture with treatment medium for 72 h. Treatment medium contained 0.1, 1, 10, 100, or 1000 μg/mL heparin in Medium 200 (with LSGS), while the control was medium only. The medium was replaced daily for the duration of this study. Cells were seeded in 96-well plate at a density of 30,000 cells/well in 200 μL of Medium 200 (with LSGS). Cells were left to adhere for 2 h before the medium was removed. Cells were fixed with 10% formalin and permeabilized. Wells were stained for 1 h with Alexa Fluor 488 Phalloidin (1:100, 100 μL, A12379, Invitrogen). Then the cells were stained with DAPI solution (3 μg/mL in PBS) for 10 min. Wells were imaged with an Eclipse Ti2 microscope under FITC excitation (465-495 nm) and emission (515-555 nm) and DAPI excitation (340-380 nm) and emission (435-485 nm). MATLAB was used to quantify the area of the green channel and count the cells in the blue channel for 3 images of each of the 3 wells (n=9) to calculate a ratio of F-actin area to number of cells.
# [7] = system: Human umbilical artery endothelial cells (HUAECs); assay: HUAECs heparin release study, TFPI ELISA; details: for release of TFPI: after 48 h, comparable to 0 μg/mL, more than profiles A and B
# Description: Human umbilical artery endothelial cells (HUAECs) (Sigma-Aldrich) were seeded in MesoEndo Cell Growth Medium (Sigma-Aldrich) with the appropriate heparin treatment. For XTT and TFPI ELISA measurements, cells were seeded in a 24-well plate at a density of 150,000 cells/well in 1.8 mL of medium, while for immunostaining, cells were seeded in a 96-well plate at a density of 25,000 cells/well in 300 µL of medium. Treatment medium contained the heparin concentrations detailed in Table 1. One control group was medium only, while the other control group contained 30 μg/mL heparin, an estimate of heparin concentration during surgery. The medium was replaced at 8, 24, and 48 h. XTT was conducted as described above at 24 and 48 h. Immunostaining and quantification was completed as described above at 48 h. Tissue factor pathway inhibitor (TFPI) was quantified with DuoSet ELISA kit (R&D Systems, Minneapolis, Minn.) according to the manufacturer's protocol. The ladder and all samples were run in triplicate (n=9).
# [8] = system: Human umbilical artery endothelial cells (HUAECs); assay: HUAECs heparin release study, phalloidin (F-actin) staining; details: heparin profiles A, B, C; 48 h; p>0.05
# Description: as §3, §1
substance,measurement,setting,value
heparin,XTT metabolic activity of HUAECs at 48 h (normalized to 0 μg/mL),[1]; heparin profile A (246/122/118 μg/mL at 0-8/8-24/24-48 h),reduces
same,XTT metabolic activity and vWF expression of HUAECs,[1]; slower heparin profiles B and C,unaffected
same,vWF expression (ratio of vWF intensity to number of cells),[2],upward trend
same,XTT metabolic activity compared to 0 μg/mL heparin,[3],significantly decreased
same,gap closure over 16 h,"[4]; 1, 10, 100 and 1000 μg/mL heparin",significantly decreases
same,gap closure speed (normalized to 0 μg/mL),"[4]; 10, 100 and 1000 μg/mL heparin",significantly decreases
same,"vWF intensity, profile A versus profile C",[5],higher
same,"number of cells adhered after 2 h, compared to 0 μg/mL","[6]; 1000 μg/mL heparin, p<0.05",significantly lower
same,"ratio of F-actin area to number of cells, compared to 0 μg/mL","[6]; 1000 μg/mL heparin, p<0.05",significantly lower
same,number of cells adhered after 2 h,[6]; 0.1 and 1 μg/mL heparin,support
same,ratio of F-actin area to number of cells,[6]; 0.1 and 1 μg/mL heparin,support
same,release of TFPI,[7]; 30 μg/mL heparin,highest release of TFPI
same,tissue factor pathway inhibitor (TFPI) produced,"[7]; heparin profile A, after 24 and 48 h, p<0.05",significantly less
same,release of TFPI,[7]; heparin profile C,highest release of TFPI
same,phalloidin (F-actin) area ratio,[8],not impacted
